The subject of the data set is Yap1 mRNA. Description: Antisense inhibition of human Yap1 in A-431 cells by cEt gapmers, single dose (Example 2, RTS4814). Type of data set: cell-based. In a few lines:
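A-431 cells (5,000/well) received 2,000 nM oligonucleotide by free uptake for about 48 h. Yap1 mRNA was then quantified by RT-qPCR with primer probe set RTS4814, normalized to RIBOGREEN total RNA, and reported as % of untreated control; asterisked values mark oligos inside the amplicon.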

Setting [1] is: Table 23, Yap1 mRNA as percent of untreated control, 3-10-3 cEt gapmers, single dose.
[2] abbreviates: A-431 cells, 5,000 cells per well, free uptake, 2,000 nM modified oligonucleotide, approx. 48 hours, RTS4814, normalized to RIBOGREEN, Table 4, asterisk (*) = targets amplicon region of primer probe set.
[3] abbreviates: Table 21, Yap1 mRNA, percent of untreated control, 3-10-3 cEt gapmers targeting SEQ ID NO.: 1 and 2.
The mark [4] stands for this setting: Table 20, Yap1 mRNA, percent of untreated control, 3-10-3 cEt gapmers targeting SEQ ID NO.: 1 and 2.
Setting [5] is: Table 32, Yap1 mRNA, percent of untreated control, 3-10-3 cEt gapmers targeting SEQ ID NO.: 1, and 2.
[6] abbreviates: Table 6, A-431 cells, 5,000 cells per well, free uptake, 2,000 nM modified oligonucleotide, approx. 48 hours, RTS4814, normalized to RIBOGREEN, Yap1 mRNA relative to untreated control cells.
Where [7] appears, read: Table 18, A-431 cells, 5,000 cells per well, free uptake, 2,000 nM modified oligonucleotide, approx. 48 hours, RTS4814, normalized to RIBOGREEN, Yap1 mRNA as percent of untreated control.
Setting [8] is: Yap1 mRNA as percent of untreated control, A-431 cells, 3-10-3 cEt gapmers targeting SEQ ID NO.: 1, and 2, Table 30.
The mark [9] stands for this setting: Table 25, Yap1 mRNA as percent of untreated control, 3-10-3 cEt gapmers targeting SEQ ID NO.: 1, and 2.
Setting [10] is: Table 5, A-431 cells, 5,000 cells per well, free uptake, 2,000 nM modified oligonucleotide, approx. 48 hours, RTS4814, normalized to RIBOGREEN, Yap1 mRNA relative to untreated control cells.
Where [11] appears, read: Table 24, Yap1 mRNA as percent of untreated control, 3-10-3 cEt gapmers targeting SEQ ID NO.: 1, and 2.
[12] abbreviates: Table 22, Yap1 mRNA as percent of untreated control, 3-10-3 cEt gapmers, single dose.

Strand notation (5' to 3'): a small letter for the sugar, then the base; units joined by * are phosphorothioate-linked, units joined directly phosphodiester-linked; [ ] holds rarer units or linkages, { } end groups; capitals alone tell only the bases. k = constrained ethyl (cEt); [5mC] = 5-methylcytosine; d = 2'-deoxy (DNA)

On to “1075049 (antisense kG*kA*kA*dA*dT*dA*dT*dT*dG*dG*dT*dA*dA*kG*kT*k[5mC]) [Compound 1075049]”, for which the “YAP1 (% UTC)” value under setting [1] amounted to 10 % UTC.
For the substance “716508 (antisense k[5mC]*kT*kA*dG*dG*dT*dA*dG*dA*dA*dT*dT*dT*k[5mC]*kA*kT) [Compound 716508]”, the “YAP1 (% UTC)” value under setting [2] came out at 67 % UTC.
With “1074183 (antisense k[5mC]*k[5mC]*kG*dG*dT*dT*dG*dA*dG*dG*d[5mC]*dG*dG*k[5mC]*kG*kG) [Compound 1074183]”, the “YAP1 (% UTC)” value under setting [3] was 90 % UTC.
For the substance “1076038 (kA*kG*kG*d[5mC]*dA*dA*dG*dA*dA*dT*dT*dG*dG*kG*kT*kA; antisense) [Compound 1076038]”, the “YAP1 (% UTC)” value under setting [4] was 11 % UTC.
Take “1076549 (antisense kG*kT*kG*d[5mC]*dA*dA*dA*dA*dT*dA*d[5mC]*d[5mC]*dT*kT*kT*kG) [Compound 1076549]”: for the setting “Table 19, A-431 cells, 5,000 cells per well, free uptake, 2,000 nM modified oligonucleotide, approx. 48 hours, RTS4814, normalized to RIBOGREEN, Yap1 mRNA as percent of untreated control”, the “YAP1 (% UTC)” value is on record as 8 % UTC.
On to “1076562 (kT*kA*kT*dT*dA*d[5mC]*dA*dG*dA*dG*dG*dG*dT*kA*kG*k[5mC]; antisense) [compound 1076562]”, for which the “YAP1 (% UTC)” value under setting [5] is reported as 17 % UTC.
For the substance “716510 (antisense k[5mC]*kA*kA*d[5mC]*dA*dT*dG*d[5mC]*dT*dA*dT*dG*dT*kA*kA*kT) [Compound 716510]”, the “YAP1 (% UTC)” value under setting [6] was 122 % UTC.
With “1074852 (antisense kA*kA*kT*dT*dG*dT*dT*dA*dT*dG*dA*dT*dA*kG*kG*k[5mC]) [Compound 1074852]”, under setting [7], the “YAP1 (% UTC)” value was 4 % UTC.
Regarding “716373 (k[5mC]*kA*kA*d[5mC]*dT*dG*d[5mC]*dA*dG*dA*dG*dA*dA*kG*k[5mC]*kT; antisense) [Compound 716373]”, the “YAP1 (% UTC)” value under setting [2] stood at 69 % UTC.
Take “1075152 (kT*kA*kT*dA*dA*dT*dG*dG*dG*dA*dG*dG*dA*kT*kT*kA; antisense) [compound 1075152]”: the “YAP1 (% UTC)” value under setting [8] was 99 % UTC.
“1074663 (antisense k[5mC]*kA*kT*dT*d[5mC]*dT*dA*dG*dG*dT*dA*dG*dA*kA*kT*kT) [Compound 1074663]”: under setting [3], the “YAP1 (% UTC)” value came out at 79 % UTC.
For the substance “716505 (antisense kG*kA*kT*dT*dT*dA*dA*dT*d[5mC]*dT*dT*dT*d[5mC]*kT*kG*k[5mC]) [Compound 716505]”, under setting [2], the “YAP1 (% UTC)” value is 35 % UTC.
“716424 (kG*k[5mC]*kA*dA*dT*dG*dG*dA*d[5mC]*dA*dA*dG*dG*kA*kA*kG; antisense) [Compound 716424]”: the “YAP1 (% UTC)” value under setting [2] stood at 25 % UTC.
Regarding “1076496 (kG*kT*kT*dA*dA*dA*dG*dA*d[5mC]*d[5mC]*dA*dA*d[5mC]*kA*k[5mC]*kA; antisense) [compound 1076496]”, under setting [8], the “YAP1 (% UTC)” value amounted to 81 % UTC.
As for “1075442 (antisense kT*kA*kT*dT*dA*dG*dT*dT*d[5mC]*dT*dA*d[5mC]*dG*kA*kT*kT) [compound 1075442]”, the “YAP1 (% UTC)” value under setting [5] amounted to 71 % UTC.
With “1074948 (antisense kG*kA*kG*dT*dT*d[5mC]*d[5mC]*dA*dA*dA*dA*d[5mC]*d[5mC]*k[5mC]*kT*kT) [Compound 1074948]”, the “YAP1 (% UTC)” value under setting [7] amounted to 61 % UTC.
As for “1075723 (kT*kT*kA*dT*d[5mC]*d[5mC]*dT*dA*dT*d[5mC]*d[5mC]*d[5mC]*dT*kG*kG*kT; antisense) [Compound 1075723]”, the “YAP1 (% UTC)” value under setting [9] is 32 % UTC.
The same measure, in the same setting: the same measure for “1074251 (antisense kT*k[5mC]*kT*dG*dA*dT*d[5mC]*dG*dA*dT*dG*dT*dG*kA*kT*kT) [Compound 1074251]”: 7 % UTC.
For “716383 (kT*k[5mC]*kA*dT*d[5mC]*dA*dT*dA*dT*dT*d[5mC]*dT*dG*k[5mC]*kT*kG; antisense) [Compound 716383]”, under setting [10], the “YAP1 (% UTC)” value turned out to be 98 % UTC.
Regarding “716514 (antisense kG*k[5mC]*kT*dG*dA*dT*dA*dT*dA*dT*dA*dA*dG*kA*kT*kA) [Compound 716514]”, under setting [2], the “YAP1 (% UTC)” value was found to be 68 % UTC.
For the substance “716386 (kA*kT*kT*dT*d[5mC]*dT*d[5mC]*d[5mC]*dA*dT*d[5mC]*d[5mC]*dT*kG*kA*kG; antisense) [Compound 716386]”, the “YAP1 (% UTC)” value under setting [10] is reported as 60 % UTC.
Turning to “1074566 (antisense k[5mC]*kA*k[5mC]*dT*dG*dA*dA*dT*dT*d[5mC]*d[5mC]*dA*dA*kT*k[5mC]*kG) [Compound 1074566]”, the “YAP1 (% UTC)” value under setting [4] was 3 % UTC.
Take “1075463 (antisense k[5mC]*kT*kT*dA*dA*dT*d[5mC]*d[5mC]*dA*dA*dA*dG*d[5mC]*kT*kT*k[5mC]) [Compound 1075463]”: the “YAP1 (% UTC)” value under setting [3] turned out to be 34 % UTC.
Consider “716385 (kT*kT*k[5mC]*d[5mC]*d[5mC]*dA*dT*d[5mC]*d[5mC]*dA*dT*d[5mC]*dA*kG*kG*kA; antisense) [Compound 716385]”, for which the “YAP1 (% UTC)” value under setting [2] turned out to be 87 % UTC.
Take “1076260 (k[5mC]*kT*kT*dA*dA*dT*dT*dT*dA*dA*d[5mC]*dT*d[5mC]*k[5mC]*kT*kG; antisense) [Compound 1076260]”: under setting [7], the “YAP1 (% UTC)” value is reported as 3 % UTC.
As to “1075082 (antisense k[5mC]*kT*kT*dT*dA*dG*dA*dT*dA*d[5mC]*dA*dA*dG*kA*kG*kG) [Compound 1075082]”, the “YAP1 (% UTC)” value under setting [11] came out at 80 % UTC.
The same measure, in the same setting: the result for “1075178 (antisense k[5mC]*kT*kG*dG*dA*dA*dG*dA*dA*dA*dT*dT*dA*k[5mC]*k[5mC]*k[5mC]) [Compound 1075178]” reads 47 % UTC.
As to “1076324 (kG*k[5mC]*kT*d[5mC]*dA*dA*dA*dA*dG*dG*dT*d[5mC]*dT*k[5mC]*kT*k[5mC]; antisense) [Compound 1076324]”, the “YAP1 (% UTC)” value under setting [7] is recorded as 13 % UTC.
Consider “1074472 (kA*kA*k[5mC]*d[5mC]*d[5mC]*d[5mC]*d[5mC]*d[5mC]*d[5mC]*dA*d[5mC]*d[5mC]*dG*kA*k[5mC]*k[5mC]; antisense) [Compound 1074472]”, for which the “YAP1 (% UTC)” value under setting [12] worked out at 107 % UTC.
Turning to “1074160 (kG*k[5mC]*kG*dA*dG*d[5mC]*dG*dA*dG*dG*dG*d[5mC]*dT*kA*k[5mC]*kG; antisense) [compound 1074160]”, the “YAP1 (% UTC)” value under setting [8] is recorded as 86 % UTC.
Take “1074375 (antisense kG*k[5mC]*kA*dG*dG*dG*dT*dG*d[5mC]*dT*dT*dT*dG*kG*kT*kT) [Compound 1074375]”: under setting [3], the “YAP1 (% UTC)” value came to 33 % UTC.
In the case of “716474 (kT*kA*kA*dA*dT*dG*dA*dA*dG*dG*dT*dA*dA*kA*k[5mC]*k[5mC]; antisense) [Compound 716474]”, under setting [6], the “YAP1 (% UTC)” value stood at 120 % UTC.
As for “716376 (k[5mC]*kG*kA*dA*dG*dA*dT*dG*d[5mC]*dT*dG*dA*dG*k[5mC]*kT*kG; antisense) [Compound 716376]”, the “YAP1 (% UTC)” value under setting [2] is on record as 35 % UTC.
Take “1076361 (kT*kG*kG*dG*dA*dA*dA*dA*dG*d[5mC]*dT*dA*d[5mC]*k[5mC]*kA*k[5mC]; antisense) [Compound 1076361]”: the “YAP1 (% UTC)” value under setting [1] is given as 87 % UTC.
Turning to “716549 (k[5mC]*k[5mC]*kA*d[5mC]*dT*dT*dT*dT*dG*d[5mC]*dA*dA*dT*kG*kT*kT; antisense) [Compound 716549]”, the “YAP1 (% UTC)” value under setting [6] is reported as 44 % UTC.
Regarding “1075243 (antisense k[5mC]*kT*kT*dA*dG*dT*dA*dA*dG*dA*dA*dT*dT*kG*kT*k[5mC]) [Compound 1075243]”, the “YAP1 (% UTC)” value under setting [9] amounted to 4 % UTC.
In the case of “1075634 (antisense kA*kG*kA*d[5mC]*dT*dA*dT*dA*dT*dT*dG*dG*d[5mC]*kT*k[5mC]*k[5mC]) [compound 1075634]”, under setting [5], the “YAP1 (% UTC)” value came to 65 % UTC.
On to “1074763 (kT*kG*k[5mC]*dT*dA*d[5mC]*d[5mC]*d[5mC]*dA*dA*dT*dA*d[5mC]*kA*kA*k[5mC]; antisense) [Compound 1074763]”, for which, under setting [9], the “YAP1 (% UTC)” value is 25 % UTC.
On to “716542 (antisense k[5mC]*kT*kT*d[5mC]*d[5mC]*d[5mC]*dT*dG*dT*dG*dT*dT*d[5mC]*kA*kT*kT) [Compound 716542]”, for which, under setting [10], the “YAP1 (% UTC)” value was 45 % UTC.
As to “1074641 (antisense kG*kG*k[5mC]*d[5mC]*dA*dA*dA*dA*dT*dA*d[5mC]*dT*dT*kA*kG*kA) [compound 1074641]”, the “YAP1 (% UTC)” value (Yap1 mRNA as percent of untreated control, A-431 cells, 3-10-3 cEt gapmers targeting SEQ ID NO.: 1, and 2, Table 31) stood at 107 % UTC.
As for “1075080 (antisense kA*kT*kT*dA*d[5mC]*dA*dA*dA*dG*dA*d[5mC]*dA*dG*k[5mC]*k[5mC]*k[5mC]) [Compound 1075080]”, the “YAP1 (% UTC)” value under setting [12] was determined as 18 % UTC.
Consider “1075241 (antisense kG*kA*kT*dA*dA*dT*dT*dA*d[5mC]*dT*dA*dA*d[5mC]*kT*kG*kA) [Compound 1075241]”, for which the “YAP1 (% UTC)” value under setting [1] stood at 31 % UTC.
Take “1075465 (antisense kG*kA*kT*dT*dT*dA*dT*dT*dG*dA*dA*d[5mC]*dT*kG*kA*kG) [Compound 1075465]”: under setting [1], the “YAP1 (% UTC)” value is 7 % UTC.
